In patent publication US6197982A, “Vitamin D analogues” (priority 1996, dated 2001):
Entries after “also recorded” stand apart in the source; their conditions may differ. Read-outs that look alike come from different tables or passages of the source.

Experiments:
mouse spleen lymphocytes = test: mixed lymphocyte reaction (MLR), 3H-thymidine incorporation; assay type: cell-based, mouse (BALB/c and CB6F1); conditions: for immunosuppressive activity (MLR), in words: also in comparison with prior art reference compounds; for MLR rel. (ratio between the IC50 value of 1,25(OH)2 D3 and the IC50 value of the compound): relative to 1,25(OH)2 D3, 72 hours, >1 = more active
Experimental: The mixed cultures of lymphocytes are incubated with the test compounds for 72 hours. Cellular DNA-synthesis is assessed by the incorporation of ^3 H-thymidine in the D
(§1) .sunburst. The values are relative to 1,25 (OH)2 D3; a value
(§2) H-thymidine incorporation compared to controls.

[1] = tested on: HaCaT, human skin keratinocyte cell line; test: HaCaT antiproliferative assay, 3H-thymidine uptake; assay type: cell-based; conditions: for inhibition at 0.1 µM: Homo sapiens, HaCaT, read-out: HaCaT, max. % (maximal inhibition of the cell proliferation); for inhibition at 0.1 µM / maximal inhibition in HaCaT, in words: at 10^-7 M; for maximal inhibition in HaCaT, in words / potency in the HaCaT-assay (psoriasis model), in words: compared with 1,25(OH)2 D3; for HaCaT rel. (ratio between the IC50 value of 1,25(OH)2 D3 and the IC50 value of the compound): relative to 1,25(OH)2 D3, 3H-thymidine incorporation, >1 = more active
Excerpt: as §1, §2
.cndot. "HaCaT, max %" indicates the maximal inhibition of the cell
proliferation (maximal efficacy) which is obtainable at the higher
concentration of 10^-7 M of a compound.

[2] = calcemic activity in rats in vivo; set-up: species or system rat; key to Calc. rel. (calcemic activity relative to 1,25(OH)2 D3): calcemic activity relative to 1,25(OH)2D3 (=1); conditions: for calcemic activity, in words: compared with 1,25(OH)2 D3; for Calc. rel. (calcemic activity relative to 1,25(OH)2 D3): rats in vivo, low values preferred
Experimental: The calcemic activity of the compounds was determined in rats in vivo, as previously described. In table 1, column "Calc., rel.", the calcemic activities of selected compounds (relative to 1,25(OH)2 D3) are listed; as mentioned, low values for the compounds of the present invention are ordinarily preferred.
as §1

calcium metabolism = conditions: cited from earlier work; for activity on calcium metabolism: in vivo
immune functions = conditions: in vivo; cited from earlier work
[3] = tested on: type I diabetes, non-obese diabetic (NOD) mouse; conditions: cited from earlier work
angiogenesis = conditions: cited from earlier work
B-lymphocytes = conditions: in vitro; cited from earlier work
cells = conditions: cited from earlier work
activated T-lymphocytes = conditions: cited from earlier work
[4] = tested on: regulatory/suppressor T-lymphocytes; conditions: cited from earlier work
monocytes/macrophages = conditions: cited from earlier work
Cytotoxic T-cells = conditions: cited from earlier work
HL-60 cancer cells = conditions: relative to 1,25(OH)2 D3; cited from earlier work
receptor = conditions: relative to 1,25(OH)2 D3; cited from earlier work
skin allograft = conditions: mice; cited from earlier work
breast cancer cells [5] = conditions: cited from earlier work
breast cancer cells [6] = conditions: in vitro; cited from earlier work
[7] = tested on: autoimmune disease recurrence in NOD mice; conditions: cited from earlier work
transcriptional activity = conditions: compared to 1,25(OH)2 D3; cited from earlier work
psoriasis = conditions: cited from earlier work
[8] = in vivo; cited from earlier work
graft rejection = conditions: cited from earlier work

Structure (SMILES): C=C1/C(=C\C=C2/CCC[C@]3(C)[C@@H]([C@@H](C)C(CCC(C)(C)O)OC)CC[C@@H]23)C[C@@H](O)C[C@@H]1O (single isomer, unassigned) [Compound 101]
- immunosuppressive activity (MLR), in words (mouse spleen lymphocytes): potent effects
- MLR rel. (ratio between the IC50 value of 1,25(OH)2 D3 and the IC50 value of the compound) (mouse spleen lymphocytes): 175
- inhibition at 0.1 µM [1]: 92%
- maximal inhibition in HaCaT, in words [1]: the same, or higher, maximal inhibition at 10^-7 M as 1,25(OH)2 D3
- potency in the HaCaT-assay (psoriasis model), in words [1]: considerably more potent than 1,25(OH)2 D3
- HaCaT rel. (ratio between the IC50 value of 1,25(OH)2 D3 and the IC50 value of the compound) [1]: 28
- calcemic activity, in words [2]: only about half as large as that of 1,25(OH)2 D3
- Calc. rel. (calcemic activity relative to 1,25(OH)2 D3) [2]: 0.45

Structure (SMILES): C=C1/C(=C\C=C2/CCC[C@]3(C)[C@@H]([C@@H](C)C(CCC(C)(C)O)OCC)CC[C@@H]23)C[C@@H](O)C[C@@H]1O (single isomer, unassigned) [Compound 102]
- immunosuppressive activity (MLR), in words (mouse spleen lymphocytes): potent effects
- MLR rel. (ratio between the IC50 value of 1,25(OH)2 D3 and the IC50 value of the compound) (mouse spleen lymphocytes): 161
- inhibition at 0.1 µM [1]: 85%
- maximal inhibition in HaCaT, in words [1]: the same, or higher, maximal inhibition at 10^-7 M as 1,25(OH)2 D3
- potency in the HaCaT-assay (psoriasis model), in words [1]: considerably more potent than 1,25(OH)2 D3
- HaCaT rel. (ratio between the IC50 value of 1,25(OH)2 D3 and the IC50 value of the compound) [1]: 137
- calcemic activity, in words [2]: only about half as large as that of 1,25(OH)2 D3
- Calc. rel. (calcemic activity relative to 1,25(OH)2 D3) [2]: 0.50

Structure (SMILES): C=C1/C(=C\C=C2/CCC[C@]3(C)[C@@H]([C@H](C)CCCC(C)(C)O)CC[C@@H]23)C[C@@H](O)C[C@@H]1O [1,25(OH)2 D3, 1α,25-dihydroxy-vitamin D3]
- hypercalcemia (calcium metabolism; high doses necessary for therapeutic effect on e.g. psoriasis, cancer, immunological disorders): serious side effects due to hypercalcemia
- immune functions in vitamin D deficiency states (immune functions): restores normal immune functions in vitamin D deficiency states in vivo
- immunoregulation in type I diabetes [3]: effective immunomodulator
- MLR rel. (ratio between the IC50 value of 1,25(OH)2 D3 and the IC50 value of the compound) (mouse spleen lymphocytes): 1
- angiogenesis (angiogenesis): inhibition of angiogenesis
- formation of antibodies (IgM and IgG) from B-lymphocytes (B-lymphocytes): indirect inhibition of the formation of antibodies (IgM and IgG)
- inhibition at 0.1 µM [1]: 85%
- HaCaT rel. (ratio between the IC50 value of 1,25(OH)2 D3 and the IC50 value of the compound) [1]: 1
- differentiation of cells (cells): stimulate the differentiation of cells
- excessive cell proliferation (cells): inhibit excessive cell proliferation
- cytokines IL-2 and INF-γ (activated T-lymphocytes): down-regulation of cytokines IL-2 and INF-γ
- proliferation of activated T-lymphocytes (activated T-lymphocytes): inhibited
- regulatory/suppressor T-lymphocytes [4]: stimulated
- Calc. rel. (calcemic activity relative to 1,25(OH)2 D3) [2]: 1
- production/release of cytokines such as IL-1 and TNF (monocytes/macrophages; antigen-stimulated monocytes/macrophages): downregulation
- antibacterial activity of monocytes/macrophages (monocytes/macrophages): enhances their antibacterial activity
- differentiation of monocytes towards macrophages (monocytes/macrophages): stimulates the differentiation of monocytes towards macrophages
- cytotoxic T-cells (Cytotoxic T-cells): inhibited

Structure (SMILES): C=C1/C(=C\C=C2/CCC[C@]3(C)[C@@H]([C@H](C)[C@H](CCC(C)(C)O)OC)CC[C@@H]23)C[C@@H](O)C[C@@H]1O [22S-methoxy-1,25(OH)2 D3]
- potency in inducing differentiation of HL-60 cancer cells, times that of 1,25(OH)2 D3 (HL-60 cancer cells): 0.25 times
- receptor binding affinity, times that of 1,25(OH)2 D3 (receptor): 0.03 times

Structure (SMILES): C=C1/C(=C\C=C2/CCC[C@]3(C)[C@@H]([C@@H](C)C(O)CCC(C)(C)O)CC[C@@H]23)C[C@@H](O)C[C@@H]1O (some centres unmarked) [CB1297]
- MLR rel. (ratio between the IC50 value of 1,25(OH)2 D3 and the IC50 value of the compound) (mouse spleen lymphocytes): 12
- inhibition at 0.1 µM [1]: 75%
- HaCaT rel. (ratio between the IC50 value of 1,25(OH)2 D3 and the IC50 value of the compound) [1]: 45

Structure (SMILES): C=C1/C(=C\C=C2/CCC[C@]3(C)[C@@H]([C@H](C)CCCCC(O)(CC)CC)CC[C@@H]23)C[C@@H](O)C[C@@H]1O [CB 966]
- skin allograft survival / immunosuppression (skin allograft): prolonged skin allograft survival in mice

Structure (SMILES): C=C1/C(=C\C=C2/CCC[C@]3(C)[C@@H]([C@H](C)/C=C/C=C/C(O)(CC)CC)CC[C@@H]23)C[C@@H](O)C[C@@H]1O [EB 1089]
- growth of breast cancer cells (breast cancer cells [5]): inhibits the growth of breast cancer cells in vitro and in vivo
- selectivity between the anti-cancer and the calcemic effects (breast cancer cells [5]; in vivo): definite selectivity between the anti-cancer and the calcemic effects in vivo
- growth of breast cancer cells (breast cancer cells [6]): inhibits the growth of breast cancer cells in vitro

Structure (SMILES): C=C1/C(=C\C=C2/CCC[C@]3(C)[C@@H]([C@@H](C)C(O)C#CC(O)(CC)CC)CC[C@@H]23)C[C@@H](O)C[C@@H]1O (some centres unmarked) [GS1535]
- MLR rel. (ratio between the IC50 value of 1,25(OH)2 D3 and the IC50 value of the compound) (mouse spleen lymphocytes): 13
- inhibition at 0.1 µM [1]: 82%
- HaCaT rel. (ratio between the IC50 value of 1,25(OH)2 D3 and the IC50 value of the compound) [1]: 313
- Calc. rel. (calcemic activity relative to 1,25(OH)2 D3) [2]: 8.2

Structure (SMILES): C=C1/C(=C\C=C2/CCC[C@]3(C)[C@@H]([C@@H](C)C(C#CC(O)(CC)CC)OCC)CC[C@@H]23)C[C@@H](O)C[C@@H]1O (some centres unmarked) [GS1720]
- MLR rel. (ratio between the IC50 value of 1,25(OH)2 D3 and the IC50 value of the compound) (mouse spleen lymphocytes): 36
- inhibition at 0.1 µM [1]: 70%
- HaCaT rel. (ratio between the IC50 value of 1,25(OH)2 D3 and the IC50 value of the compound) [1]: 3.9
- Calc. rel. (calcemic activity relative to 1,25(OH)2 D3) [2]: 1.2

Structure (SMILES): C=C1/C(=C\C=C2/CCC[C@]3(C)[C@@H]([C@@H](C)C(C#CC(O)(CC)CC)OC)CC[C@@H]23)C[C@@H](O)C[C@@H]1O (some centres unmarked) [GS1725]
- MLR rel. (ratio between the IC50 value of 1,25(OH)2 D3 and the IC50 value of the compound) (mouse spleen lymphocytes): 150
- inhibition at 0.1 µM [1]: 96%
- HaCaT rel. (ratio between the IC50 value of 1,25(OH)2 D3 and the IC50 value of the compound) [1]: 4.4
- Calc. rel. (calcemic activity relative to 1,25(OH)2 D3) [2]: 12

Structure (SMILES): C=C1/C(=C\C=C2/CCC[C@]3(C)[C@@H]([C@@H](C)OCCCC(O)(CC)CC)CC[C@@H]23)C[C@@H](O)C[C@@H]1O [KH 1060, 20-epi-22-oxa-25,26,27-trihomo-1,25-(OH)2 D3]
- hypercalcemia / serum calcium (skin allograft): induced hypercalcemia in the highest, and most effective, dose
- skin allograft survival / immunosuppression (skin allograft): prolonged skin allograft survival in mice; also recorded: most potent immunosuppressor
- effect on calcium and bone [3]: only slight
- immunoregulation in type I diabetes [3]: effective immunoregulator
- toxicity [7]: toxic in the most effective high doses
- delaying autoimmune disease recurrence ([7]; islet transplantation): very effective in delaying autoimmune disease recurrence
- transcriptional activity (transcriptional activity): enhanced transcriptional activity

Structure (SMILES): C=C1/C(=C\C=C2/CCC[C@]3(C)[C@@H]([C@H](C)/C=C/[C@@H](O)C4CC4)CC[C@@H]23)C[C@@H](O)C[C@@H]1O [MC903]
- activity on calcium metabolism (calcium metabolism): only moderate activity on calcium metabolism in vivo
- activity on calcium metabolism (calcium metabolism; listed as Calcipotriol): low in vivo activity on calcium metabolism
- hypercalcemia in patients (psoriasis; psoriasis patients): without hypercalcemia
- improvement, % of the patients (psoriasis; without hypercalcemia, psoriasis): 70-80%
- MLR rel. (ratio between the IC50 value of 1,25(OH)2 D3 and the IC50 value of the compound) (mouse spleen lymphocytes): 0.6
- inhibition at 0.1 µM [1]: 78%
- HaCaT rel. (ratio between the IC50 value of 1,25(OH)2 D3 and the IC50 value of the compound) [1]: 1.8
- metabolism [8]: rapid metabolism
- Calc. rel. (calcemic activity relative to 1,25(OH)2 D3) [2]: 0.005

Structure (SMILES): C=C1/C(=C\C=C2/CCC[C@]3(C)[C@@H]([C@@H](C)CCCC(C)(C)O)CC[C@@H]23)C[C@@H](O)C[C@@H]1O [MC1288, 20-epi-1,25(OH)2 D3]
- hypercalcemia / serum calcium (skin allograft): less hypercalcemic than KH 1060
- skin allograft survival / immunosuppression (skin allograft): very effective
- immunosuppression / prevention of graft rejection (graft rejection; rat heart and small bowel transplantation): effective as an immunosuppressant in a rat model of heart and small bowel transplantations, preventing graft rejection; also recorded: valuable immunosuppressive activity in animal transplantation experiments
- serum calcium level (graft rejection; rat transplantation model): moderately increased
- MLR rel. (ratio between the IC50 value of 1,25(OH)2 D3 and the IC50 value of the compound) (mouse spleen lymphocytes): 150
- transcriptional activity (transcriptional activity): enhanced transcriptional activity
- inhibition at 0.1 µM [1]: 76%
- HaCaT rel. (ratio between the IC50 value of 1,25(OH)2 D3 and the IC50 value of the compound) [1]: 43
- Calc. rel. (calcemic activity relative to 1,25(OH)2 D3) [2]: 2.5
